# Experimental data taken from ChEMBL document CHEMBL1139343, “Pharmacophore guided discovery of small-molecule human apurinic/apyrimidinic endonuclease 1 inhibitors” (J Med Chem, 2009).
# Target: DNA repair nuclease/redox regulator APEX1 (Homo sapiens, UniProt P27695)
# Experiment: Inhibition of purified human recombinant APE1 expressed in Escherichia coli M15 cells
# Chain of DNA repair nuclease/redox regulator APEX1 (P27695 whole entry): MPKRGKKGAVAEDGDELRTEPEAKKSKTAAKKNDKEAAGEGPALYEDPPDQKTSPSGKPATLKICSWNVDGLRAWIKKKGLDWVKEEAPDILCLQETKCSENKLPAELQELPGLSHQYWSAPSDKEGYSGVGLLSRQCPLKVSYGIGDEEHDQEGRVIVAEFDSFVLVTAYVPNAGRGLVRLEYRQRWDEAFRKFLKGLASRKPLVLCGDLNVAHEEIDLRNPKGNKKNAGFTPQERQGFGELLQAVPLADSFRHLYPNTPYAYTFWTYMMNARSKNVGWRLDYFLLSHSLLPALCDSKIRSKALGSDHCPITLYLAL
row,IC50 [µM],Compound
1,> 100,O=C(O)CSc1nnc(-c2ccc(S(=O)(=O)N3CCOCC3)cc2)n1Cc1ccco1
2,> 100,CCC(=O)N(Cc1ccc(S(N)(=O)=O)cc1)C1CC(=O)N(c2ccccc2)C1=O (stereo unspecified)
3,12,Cc1ccc(-c2ccc(CCC(=O)O)n2CC(=O)O)cc1
4,100,O=C(O)CSc1ccc(C(=O)O)cc1[N+](=O)[O-]
5,> 100,O=[N+]([O-])c1ccccc1-c1nnc(CSc2nnc(-c3ccccc3O)o2)o1
6,> 100,Cc1cc(S(=O)(=O)N2CCOCC2)ccc1OCC(=O)N1CCCC1
7,> 100,C(=C\CSc1nnnn1-c1ccccc1)/CSc1nnnn1-c1ccccc1
8,> 100,C=CCN1C(=S)S/C(=C/C=C2\Sc3ccccc3N2CCCS(=O)(=O)O)C1=S
9,> 100,CCOC(=O)c1cnc(SC(C)C(=O)O)nc1N (stereo unspecified)
10,> 100,CS(=O)(=O)Nc1nc(CC(=O)O)cs1
11,> 100,CCOC(=O)C(CCc1nn[nH]n1)(CCc1nn[nH]n1)C(=O)OCC
12,32,O=C(O)CCNc1ccc(Br)cc1C(=O)O
13,> 100,COc1ccc(/C=C/C(=O)O)cc1S(=O)(=O)NC1CCS(=O)(=O)C1 (stereo unspecified)
14,> 100,O=C(CCc1nc(-c2ccc(Cl)cc2)no1)Nc1nnn[nH]1
15,55,O=C(O)c1cccc(NC(=O)C2CCCCC2C(=O)O)c1 (stereo unspecified)
16,> 100,CS(=O)(=O)NCc1nnc(SCC(=O)N2CCCCCC2)n1-c1ccc(F)cc1
17,9,O=C(O)CN1C(=O)/C(=C2\SC(=S)NC2=O)c2ccccc21
18,> 100,O=S(=O)(c1ccc(OC(F)(F)F)cc1)N1CCCC(c2nc(O)c3nnn(Cc4ccccc4Cl)c3n2)C1 (stereo unspecified)
19,> 100,CCS(=O)(=O)Nc1cc2c(C(C)=O)c(C)n(S(=O)(=O)CC)c2cc1C
20,> 100,CCN1/C(=C2/SC(=S)N(NC(C)=O)C2=O)Sc2ccc(S(=O)(=O)C(F)(F)F)cc21
21,> 100,Cc1cc(C)nc(SCc2nnc(SCC(=O)N3CCCCC3)n2-c2ccccc2)n1
22,35,Cc1ccccc1NC(=O)c1cccc(NC(=O)CCC(=O)O)c1

row,IC50 [µM],Compound
1,> 100,O=C(CN(Cc1cccs1)S(=O)(=O)c1ccc(S(=O)(=O)NC2CC2)cc1)Nc1ccccc1
2,> 100,O=S(=O)(c1ccc(F)cc1)N1CCCC(c2nc(O)c3nnn(Cc4ccc(F)cc4)c3n2)C1 (stereo unspecified)
3,16,O=C(O)Cn1c(=O)n(CC(=O)O)c2ccccc21
4,> 100,NC(=O)CSc1nnc(-c2ccc(S(=O)(=O)N3CCCCC3)cc2)n1Cc1ccccc1
5,> 100,COC(=O)COc1ccc(S(=O)(=O)N2CCCCC2)cc1C
6,> 100,CCOc1cc(S(=O)(=O)NCc2ccc3c(c2)OCO3)c(OCC)cc1-n1cnnn1
7,27,O=C(O)c1oc2ccccc2c1CSc1ccccn1
8,40,Cc1oc(C(=O)O)cc1CSCc1cc(C(=O)O)oc1C
9,> 100,Cc1ccc(-c2noc(CNC(=O)CN(C)S(=O)(=O)c3ccc4ccccc4c3)n2)cc1
10,> 100,CC1(C)C(C(=O)O)N2C(=O)C(NC(=O)C(C(=O)O)c3ccccc3)C2[S+]1[O-] (stereo unspecified)
11,> 100,CCCCOC(=O)c1ccc(NC(=O)CSc2nnnn2CC)cc1
12,> 100,CCNC(=O)c1cc(S(=O)(=O)NCCC(=O)O)c(C)s1
13,> 100,Cc1c(OS(=O)(=O)c2ccccc2)cccc1OS(=O)(=O)c1ccccc1
14,100,Cc1cc(S(=O)(=O)N2CCOCC2)ccc1OCC(=O)O
15,> 100,Cc1nc(NC(=O)c2ccco2)sc1C(=O)O
16,> 100,O=S(=O)(Nc1ccc(NS(=O)(=O)c2cccs2)cc1)c1cccs1
17,33,O=C(O)c1cccc(S(=O)(=O)N2CCCC(c3nc(O)c4nnn(Cc5ccc(F)cc5)c4n3)C2)c1 (stereo unspecified)
18,40,O=C(O)CC[S+]([O-])CCC(=O)O
19,30,O=C(O)CC(CC(=O)Nc1nnn[nH]1)c1ccccc1 (stereo unspecified)
20,> 100,O=C(O)CNC1CS(=O)(=O)CC1O (stereo unspecified)
21,> 100,COc1cc(C=C2C(=O)OC3(CCCC3)OC2=O)cc(I)c1OCc1ccccc1C#N
22,> 100,O=S(=O)(c1ccccc1)N1CCCC(c2nc(-c3ccc(F)cc3)no2)C1 (stereo unspecified)

row,IC50 [µM],Compound
1,> 100,O=C(O)CCCNc1n[nH]c(=O)[nH]c1=O
2,> 100,COc1cc(-c2nnn[nH]2)ccc1OCC(=O)O
3,> 100,CCc1cc2c(=O)c(-c3nc4ccccc4s3)c(C)oc2cc1OS(C)(=O)=O
4,50,CC1([N+](=O)[O-])CN(CCC(=O)O)CN(CCC(=O)O)C1
5,> 100,CC1CCc2c(sc3nc(C4CC4)n4c(SCC(=O)Nc5nccs5)nnc4c23)C1 (stereo unspecified)
6,> 100,CCc1nnc(NC(=O)c2cc(S(=O)(=O)N(CC)CC)ccc2Cl)s1
7,> 100,CCOC(=O)C(=Cc1c[nH]c2ccc(S(=O)(=O)N(C)C)cc12)C(=O)OCC
8,> 100,O=S(=O)(O)CCCSc1sc2ccccc2[n+]1CCCS(=O)(=O)O
9,80,O=C(O)CCc1nc2cc(C(=O)O)ccc2[nH]1
10,20,Nc1ncnc2[nH]c(SCCC(=O)O)nc12
11,27,O=C(Nc1cc(S(=O)(=O)O)cc2cc(S(=O)(=O)O)cc(O)c12)c1ccccc1
12,> 100,Cc1ccc(S(=O)(=O)CCc2nnc(NC(=O)CCc3ccccc3)s2)cc1
13,> 100,O=C(Nc1ccccc1O)c1cc(S(=O)(=O)N2CCCCCC2)ccc1Cl
14,> 100,Cc1cc(S(=O)(=O)N2CCOCC2)ccc1OCC(=O)NCc1ccncc1
15,15,O=C(O)CCn1c(=S)n(CCC(=O)O)c2ccccc21
16,> 100,O=P(O)(O)c1ccccc1OCCOc1ccccc1P(=O)(O)O
17,13,O=C(O)CN1C(=O)/C(=C2/C(=O)N(CC(=O)O)c3ccccc32)SC1=S
18,> 100,O=S(=O)(O)c1cc(O)c2c(S(=O)(=O)O)cc(S(=O)(=O)O)cc2c1
19,> 100,O=C(O)CC1S/C(=N/N=C/c2ccco2)NC1=O (stereo unspecified)
20,> 100,CCOc1cc(-n2cnnn2)c(OCC)cc1NC(=O)c1cc2cccc(OC)c2oc1=O
21,> 100,CC(C)(C)NS(=O)(=O)c1ccc2oc3ccc(S(=O)(=O)NC(C)(C)C)cc3c2c1
22,> 100,O=C(O)c1cccc(Nc2nc3ccccc3nc2NS(=O)(=O)c2cccc([N+](=O)[O-])c2)c1

row,IC50 [µM],Compound
1,80,O=C(O)c1cccc(S(=O)(=O)N2CCS(=O)(=O)CC2)c1
2,27,NC(=O)CSc1nc2ccc(NC(=O)c3ccccc3C(=O)O)cc2s1
3,> 100,O=C(O)c1ccc(NS(=O)(=O)c2cccs2)cc1
4,17,O=C(O)CCSc1nnc(SCCC(=O)O)s1
5,> 100,O=[N+]([O-])c1ccccc1-c1nnc(CSc2nc(-c3ccccc3O)n[nH]2)o1
6,> 100,COc1ccccc1C(=O)NCC(C)(C)CNC1=NS(=O)(=O)c2ccccc21
7,> 100,Cc1cc(S(=O)(=O)N2CCc3ccccc32)ccc1OCC(=O)NCc1ccccn1
8,> 100,O=C(Nc1nnc(CCS(=O)(=O)c2ccc3ccccc3c2)s1)c1ccccc1Cl
9,> 100,CC1CCCCC1N(Cc1ccccc1F)S(=O)(=O)c1ccc(S(=O)(=O)N(C)C)cc1 (stereo unspecified)
10,> 100,Cn1c(SCC(N)=O)nnc1-c1ccc(NS(C)(=O)=O)cc1
11,33,O=C(O)CCn1c(=O)[nH]c(=O)n(CCC(=O)O)c1=O
12,> 100,O=C(Nc1ccccc1O)c1cc(S(=O)(=O)N2CCCCC2)ccc1Cl
13,30,O=C(O)c1ccccc1C(=O)NCc1ccc(CNC(=O)c2ccccc2C(=O)O)cc1
14,> 100,CCNC(=O)c1cc(S(=O)(=O)NCc2ccc(C(=O)O)cc2)c(C)s1
15,12,O=C(O)CCCN1C(=O)/C(=C2/C(=O)N(CC(=O)O)c3ccccc32)SC1=S
16,> 100,O=C(O)CCC1(CCC(=O)O)CCCCC1=O
17,> 100,C=CCSc1nnc(-c2ccc(NS(C)(=O)=O)cc2)n1C
18,> 100,O=S(=O)(NCc1ccccc1)c1ccc(S(=O)(=O)N(Cc2ccc(Cl)cc2)Cc2ccco2)cc1
19,> 100,Cn1c(CCNS(=O)(=O)c2ccccc2)nnc1SCc1cccnc1
20,3,O=C(O)CN1C(=O)/C(=C2\SC(=S)N(C(Cc3ccccc3)C(=O)O)C2=O)c2ccccc21 (stereo unspecified)
21,> 100,CN(c1ccc(C(=O)Nc2ccc(F)cc2)cc1)S(=O)(=O)c1ccccc1
22,> 100,CCCS(=O)(=O)N1CCCC(c2nc(-c3ccc(C(C)C)cc3)no2)C1 (stereo unspecified)

row,IC50 [µM],Compound
1,> 100,COc1cc(S(=O)(=O)N(Cc2ccc(Br)cc2)Cc2ccco2)ccc1-n1cnnn1
2,> 100,O=S(=O)(O)c1ccccc1Nc1ccnc(Nc2ccccc2S(=O)(=O)O)n1
3,80,O=C(O)CCn1c(=O)oc2cc(S(=O)(=O)O)ccc21
4,> 100,COc1cc(S(=O)(=O)N(Cc2cccnc2)Cc2ccccc2Cl)ccc1-n1cnnn1
5,10,O=C(O)c1ccc(Oc2ccc(S(=O)(=O)c3ccc(C(=O)O)c(C(=O)O)c3)cc2)cc1
6,> 100,O=S(=O)(O)CCSc1nnc(SCCS(=O)(=O)O)s1
7,11,O=C(O)CN1C(=O)/C(=C2\SC(=S)N(NC(=O)c3ccccc3O)C2=O)c2ccccc21
8,20,Cc1cc(C(=O)O)c(CSCc2cc(C(=O)O)oc2C)o1
9,50,O=C(O)CNS(=O)(=O)c1ccc2c(c1)C(=O)c1cc(S(=O)(=O)NCC(=O)O)ccc1-2
10,> 100,Nc1ccc(-c2ccc(N)c(S(=O)(=O)O)c2)cc1S(=O)(=O)O
11,8,O=C(c1ccc2c(c1)C(=O)N(c1ccccc1C(=O)O)C2=O)c1ccc2c(c1)C(=O)N(c1ccccc1C(=O)O)C2=O
12,> 100,CN(NC(=O)COc1ccccc1)C1=NS(=O)(=O)c2ccccc21
13,20,Cc1nc2ccc(C(=O)O)cc2c(O)c1CCC(=O)O
14,> 100,COC(=O)CSc1nnc(-c2ccc(NS(C)(=O)=O)cc2)n1C
15,> 100,COC(=O)C1C(=O)c2c([nH]c(C(=O)OC3CCCCC3)c2C)CC1C (stereo unspecified)
16,> 100,C=CCn1c(Cc2ccccc2)nnc1SCC(=O)Nc1nnc(C)s1
17,> 100,Cc1cc(S(=O)(=O)NC2CCCC2)ccc1-n1cnnn1
18,9,O=C(O)CCc1ccc(-c2cccs2)n1CC(=O)O
19,> 100,O=C(Nc1nnc(CCS(=O)(=O)c2ccc3ccccc3c2)s1)c1ccccc1
20,> 100,COc1ccc(NS(=O)(=O)c2ccc(NC(=O)c3ccccc3C(=O)O)cc2)nn1
21,15,Cc1ccc2c(c1)c1nnc(SCc3ccc(CC(=O)O)cc3)nc1n2C(=O)O
22,> 100,Cc1ccc(Cn2nnc3c(O)nc(C4CCCN(S(=O)(=O)c5ccccc5)C4)nc32)cc1 (stereo unspecified)

row,Compound,IC50 [µM]
1,CCN(c1ccc(C(O)(C(=O)OC)C(F)(F)F)cc1)S(=O)(=O)c1ccc(C)cc1 (stereo unspecified),> 100
